Laboratory results reported in patent US4565814A, “Pyridazine derivatives having a psychotropic action and compositions” (priority 1983, dated 1986).
Where two headings read alike, the source gives them in different places.

How the values were obtained:
[1] = test system: CD1 Charles River female mice with unilateral lesion of the striatum; assay: Rotational behaviour after unilateral 6-hydroxydopamine lesion of the striatum, intraperitoneal; format: in vivo, mouse; settings: for Rotational behaviour, intraperitoneal administration (change of rotations vs control): Table 8, 1 hour after administration; for Rotational behaviour of mice (intraperitoneal administration): Table 9, decrease: minus sign printed at end of the dose line, * p < 0.01, Student test
Protocol: CD1 Charles River female mice weighing from 20 to 24 g first undergo unilateral lesion of the striatum by the stereotaxic injection of 6-hydroxydopamine at a dose of 8 μg per animal. One week after this operation, the product is administered intraperitoneally to groups of 7 mice. The number of rotations is evaluated over 2 minutes, 1 hour after the administration of the product. Rotations on the same side as the lesion are counted as positive and those on the opposite side are counted as negative.

[2] = test system: CD1 (Charles River) female mice; assay: Despair behaviour (Porsolt forced-swim immobility), intraperitoneal; format: in vivo, mouse; settings: Table 8, 1 hour before test, ++ significant (Student test)
Protocol: The principle of this test is as follows: when a mouse is placed in a narrow vessel filled with water, it struggles and then, after 2 to 4 minutes, it becomes immobile and floats on its abdomen, with its back hunched and its back paws tucked under the body, and it only makes the few movements necessary to keep its head above the water. This is the so-called despair reaction. Certain psychotropic drugs, in particular antidepressants, lengthen the time for which the mouse struggles. The following protocol was selected: The products to be studied were administered intraperitoneally 1 hour before the test. For the test, the animals are placed in a narrow vessel (10×10×10 cm) filled with water to a height of 6 cm, the temperature being 24° C. plus or minus 2° C. The animals are left in the water for 6 minutes and the time for which the animal remains immobile between the 2nd and 6th minutes is measured. The activity of the substance is the greater, the shorter this time. Each substance was studied on a batch of 10 mice. The results are the average of at least two experiments.

[3] = test system: reserpine-induced ptosis in CD1 (Charles River) female mice; assay: Antagonism of reserpine-induced ptosis, intraperitoneal; format: in vivo; settings: Mus musculus, ip, i.p., reserpine 2 mg/kg i.v., read 1 hour after reserpine
Protocol: ANTAGONISM OF RESERPINE-INDUCED PTOSIS
This test, which is described by GOURET (Journal de pharmacologie Paris 1973, 4 (1), 105-128), was carried out on CD1 (Charles River) female mice weighing 20 g plus or minus 1 g. Reserpine causes ptosis 1 hour after its intravenous administration; certain antidepressants oppose this ptosis.
The following protocol was selected:
The substances to be studied were administered intraperitoneally. The reserpine is administered intravenously at the same time, at a dose of 2 mg/kg.

mice = assay: in vivo; format: in vivo; settings: i.p., mortality noted for 24 hours
Protocol: (§1) The products to be studied were administered intraperitoneally in increasing doses to batches of 10 mice.
(§2) The 50% lethal dose, that is to say the dose causing the […] of 50% of the animals studied, is determined from the results obtained for each of the products studied.

in vivo = format: in vivo; settings: mouse, in vivo, ip; Table 9; i.p.; mortality noted for 24 hours; read-out: Toxicity, intraperitoneal administration, LD50
Protocol: as §1, §2

[4] = 2 mg/kg i.p., ++ significant (Student test)
[5] = Table 8, read-out: Reserpine-induced ptosis, intraperitoneal administration, ED50
[6] = Table 9, read-out: Test for the antagonism of reserpine-induced ptosis, intraperitoneal administration, ED50

Row | Structure (SMILES) | Rotational behaviour, intraperitoneal administration (change of rotations vs control) ([1]; 0.1 mg/kg i.p., ++ significant (Student test)) | Rotational behaviour, intraperitoneal administration (change of rotations vs control) [1, 4] | Despair behaviour, intraperitoneal administration (change of immobility time) ([2]; 5 mg/kg i.p.) | ED50 [3, 5] | Rotational behaviour, intraperitoneal administration (change of rotations vs control) ([1]; 3 mg/kg i.p., n.s.: not significant) | Despair behaviour, intraperitoneal administration (change of immobility time) ([2]; 10 mg/kg i.p.) | Rotational behaviour, intraperitoneal administration (change of rotations vs control) ([1]; 0.125 mg/kg i.p., ++ significant (Student test)) | Rotational behaviour of mice (intraperitoneal administration) ([1]; 2 mg/kg i.p.) | Toxicity, intraperitoneal administration, LD50 (mice; Table 8) | Toxicity, intraperitoneal administration, LD50 (mice; Table 9) | ED50 [3, 6] | Rotational behaviour of mice (intraperitoneal administration) ([1]; 0.5 mg/kg i.p.) | LD50 at 24 h (in vivo)
1 | Cl.Cl.N#Cc1cc(-c2ccccc2)nnc1NCCN1CCOCC1 [SR 95191, 3-(2-Morpholinoethylamino)-4-cyano-6-phenylpyridazine dihydrochloride] | -60% | -107% | -26% | 3.9 mg/kg |  |  |  |  |  |  |  |  | 
2 | CN(C)CCCN1c2ccccc2CCc2ccccc21 [iminaprine] |  |  |  | 2.4 mg/kg | -6% | -38% |  |  |  |  |  |  | 
3 | Cc1cc(-c2ccccc2)nnc1NCCN1CCOCC1 [Minaprine] |  | -82% | -31% | 5 mg/kg |  |  | -53% | -82% | 63 mg/kg | 63 mg/kg | 5 mg/kg |  | 
4 | N#Cc1cc(-c2ccsc2)nnc1NCCN1CCOCC1 [SR 95 274 A] |  |  |  |  |  |  |  | -82% |  |  | 2.6 mg/kg | -60% | > 300 mg/kg
